The nature of data set [1]: Metabolic stability in human liver microsomes. The data set is classed as ADME, Microsome.
Data set [2] concerns the target NACHT, LRR and PYD domains-containing protein 3 (Mus musculus, UniProt Q8R4B8). In words: Inhibition of NLRP3 inflammasome in C57BL/6 mouse BMDM cells assessed as inhibition of LPS/nigericin-induced IL-1 beta secretion pretreated with LPS for 3 hrs followed by incubation with compound for 40 mins and later stimulated with nigericin for 35 mins by ELISA. It is filed as cell-based. In general terms: ELISA stands for enzyme-linked immunosorbent assay.

In data set [3] the test system is THP-1. The experiment in a line: Cytotoxicity against PMA-differentiated human THP-1 cells assessed as cell viability at 0.16 to 20 uM incubated for 24 hrs by CCK8 assay. Conditions: thp-1, 24 h, dose 0.16-20 µM. The data set is classed as toxicity, cell-based.
The test system of data set [4] is THP-1. In words: Effect on NLRP3 protein expression in PMA-differentiated human THP-1 cells at 0.2 to 0.8 uM pretreated with compound for 40 mins followed by LPS challenge for 3 hrs by western blot analysis. Conditions: dose 0.2-0.8 µM, time 220.0 min. The data set is classed as functional, cell-based. For orientation: Immunoblotting shows a protein as a band on a membrane.

Data set [5] concerns the target NACHT, LRR and PYD domains-containing protein 3 (Mus musculus) (UniProt Q8R4B8). The experiment in a line: Inhibition of NLRP3 inflammasome in C57BL/6 mouse BMDM cells assessed as inhibition of LPS/ATP-induced IL-1 beta secretion at 0.2 to 0.8 uM pretreated with LPS for 3 hrs followed by incubation with compound for 40 mins and later stimulated with ATP for 1 hr by ELISA. It is filed as cell-based. To be noted: dose 0.2-0.8 µM, time 100.0 min.

Data set [6] has the same target. The experiment in a line: Inhibition of NLRP3 inflammasome in C57BL/6 mouse BMDM cells assessed as inhibition of LPS/alum-induced IL-1 beta secretion at 0.2 to 0.8 uM pretreated with LPS for 3 hrs followed by incubation with compound for 40 mins and later stimulated with alum for 4 hrs by ELISA. The data set is classed as cell-based. To be noted: dose 0.2-0.8 µM, time 280.0 min.

The target is the same in data set [7]. In words: Inhibition of NLRP3 inflammasome in C57BL/6 mouse BMDM cells assessed as inhibition of LPS/MSU-induced IL-1 beta secretion at 0.2 to 0.8 uM pretreated with LPS for 3 hrs followed by incubation with compound for 40 mins and later stimulated with MSU for 12 hrs by ELISA. It is filed as cell-based. Conditions: dose 0.2-0.8 µM, time 760.0 min.
Data set [8] has as its target T1, Interferon-inducible protein AIM2 (Mus musculus) (UniProt Q91VJ1).
T1 sequence (whole entry): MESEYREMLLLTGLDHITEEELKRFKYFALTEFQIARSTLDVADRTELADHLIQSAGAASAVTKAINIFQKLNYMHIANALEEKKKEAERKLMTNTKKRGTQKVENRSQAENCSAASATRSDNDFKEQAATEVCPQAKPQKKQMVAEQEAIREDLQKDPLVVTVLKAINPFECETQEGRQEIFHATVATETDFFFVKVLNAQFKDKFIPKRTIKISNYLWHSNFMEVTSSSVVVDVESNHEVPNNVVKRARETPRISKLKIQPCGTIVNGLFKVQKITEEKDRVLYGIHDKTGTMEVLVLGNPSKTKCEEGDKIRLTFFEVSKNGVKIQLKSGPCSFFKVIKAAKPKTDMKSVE
The experiment in a line: Inhibition of AIM2 inflammasome in C57BL/6 mouse BMDM cells assessed as inhibition of LPS/poly(dA:dT)-induced IL-1 beta secretion at 0.2 to 0.8 uM pretreated with LPS for 3 hrs followed by incubation with compound for 40 mins and later stimulated with poly(dA:dT) for 6 hrs by ELISA. It is filed as cell-based. Conditions: dose 0.2-0.8 µM, time 400.0 min.

For data set [9], the system named is THP-1. In words: Effect on mitochondrial ROS production in PMA-differentiated human THP-1 cells at 0.2 to 45 uM pretreated with LPS for 3 hrs followed by incubation with compound for 40 mins and later stimulated with nigericin for 35 mins by MitoSOX staining based immunofluorescence analysis. The data set is classed as functional, cell-based. Conditions: dose 0.2-45 µM, time 75.0 min.

The subject of data set [10] is THP-1. In words: Inhibition of lysosomal damage in PMA-differentiated human THP-1 cells at 0.2 to 45 uM pretreated with LPS for 3 hrs followed by incubation with compound for 40 mins and later stimulated with nigericin for 35 mins by AO staining based analysis. It is filed as functional, cell-based. Conditions: dose 0.2-45 µM, time 75.0 min.
The species named for data set [11] is Homo sapiens. In words: Binding affinity to N-terminal GST-tagged human NLRP3deltaLRR mutant (1 to 649 residues) expressed in Escherichia coli BL21 assessed as decrease in pronase-mediated protein degradation at 1 to 100 uM incubated with compound for 50 mins followed by pronase digestion for 30 mins by DARTS analysis. To be noted: dose 1-100 µM, time 80.0 min.

The species named for data set [12] is Homo sapiens. In words: Binding affinity to N-terminal GST-tagged human NLRP3deltaLRR mutant (1 to 649 residues) expressed in Escherichia coli BL21 assessed as increase in protein thermal stability at 10 to 20 uM at 48 to 72 degC by CETSA analysis. Conditions: dose 10-20 µM.
Data set [13] can be described thus: AUC (0 to t) in BALB/c mouse at 10 mg/kg, po. The data set is classed as ADME, organism-based. To be noted: in vivo. On the set-up: dose 10 mg/kg, route po.
A short description of data set [14]: Tmax in BALB/c mouse at 10 mg/kg, po. It is filed as ADME, organism-based. To be noted: in vivo.
Data set [15] in a line: Half life in BALB/c mouse at 10 mg/kg, po. The data set is classed as ADME, organism-based. To be noted: in vivo.
The nature of data set [16]: Cmax in BALB/c mouse at 10 mg/kg, po. The data set is classed as ADME, organism-based. Also noted: dose 10 mg/kg, route po. To be noted: in vivo.
Data set [17] can be described thus: Oral bioavailability in BALB/c mouse at 10 mg/kg. It is filed as ADME, organism-based. Conditions: in vivo.
Data set [18] has as its system Mus musculus. In words: Antiinflammatory activity against DSS-induced ulcerative colitis C57BL/6 mouse model assessed as decrease in disease activity index at 20 to 30 mg/kg, ip fed with DSS for 6 days followed by administration with compound for 5 days. The data set is classed as functional, organism-based. To be noted: dose 20-30 mg/kg, time 5.0 day.
The subject of data set [19] is Mus musculus. In words: Antiinflammatory activity against DSS-induced ulcerative colitis C57BL/6 mouse model assessed as decrease in colon length shortening at 10 to 30 mg/kg, ip fed with DSS for 6 days followed by administration with compound for 5 days and measured on day 11. The data set is classed as functional, organism-based. To be noted: dose 10-30 mg/kg, time 5.0 day.

In data set [20] the test system is Mus musculus. The experiment in a line: Antiinflammatory activity against DSS-induced ulcerative colitis C57BL/6 mouse model assessed as decrease in TNF-alpha level in colon at 10 to 30 mg/kg, ip fed with DSS for 6 days followed by administration with compound for 5 days and measured on day 11 by ELISA. The data set is classed as functional, organism-based. To be noted: dose 10-30 mg/kg, time 5.0 day.

For data set [21], the system named is Mus musculus. In words: Antiinflammatory activity against DSS-induced ulcerative colitis C57BL/6 mouse model assessed as improvement in crypt deformation in colon at 10 to 30 mg/kg, ip fed with DSS for 6 days followed by administration with compound for 5 days and measured on day 11 by H and E staining based analysis. The data set is classed as functional, organism-based. To be noted: dose 10-30 mg/kg, time 5.0 day.

Data set [22] relates to Mus musculus. In words: Antiinflammatory activity against DSS-induced ulcerative colitis C57BL/6 mouse model assessed as decrease in inflammatory cell infiltration in colon at 10 to 30 mg/kg, ip fed with DSS for 6 days followed by administration with compound for 5 days and measured on day 11 by H and E staining based analysis. It is filed as functional, organism-based. To be noted: dose 10-30 mg/kg, time 5.0 day.

Data set [23] concerns the target NACHT, LRR and PYD domains-containing protein 3 (Mus musculus) (UniProt Q8R4B8). The experiment in a line: Inhibition of NLRP3 inflammasome in C57BL/6 mouse BMDM cells assessed as inhibition of IL-1 beta secretion at 0.2 to 0.8 uM pretreated with Pam3CSK4 for 3 hrs followed by incubation with compound for 40 mins and later stimulated with cytosolic LPS for 16 hrs by ELISA. The data set is classed as cell-based. Conditions: dose 0.2-0.8 µM, time 1000.0 min.

Structures are written as SMILES. Active and inactive are the calls of the source. The rule behind the calls is not given here.

Chain of NACHT, LRR and PYD domains-containing protein 3 (Mus musculus) (Q8R4B8 whole entry, the tested form may be a part): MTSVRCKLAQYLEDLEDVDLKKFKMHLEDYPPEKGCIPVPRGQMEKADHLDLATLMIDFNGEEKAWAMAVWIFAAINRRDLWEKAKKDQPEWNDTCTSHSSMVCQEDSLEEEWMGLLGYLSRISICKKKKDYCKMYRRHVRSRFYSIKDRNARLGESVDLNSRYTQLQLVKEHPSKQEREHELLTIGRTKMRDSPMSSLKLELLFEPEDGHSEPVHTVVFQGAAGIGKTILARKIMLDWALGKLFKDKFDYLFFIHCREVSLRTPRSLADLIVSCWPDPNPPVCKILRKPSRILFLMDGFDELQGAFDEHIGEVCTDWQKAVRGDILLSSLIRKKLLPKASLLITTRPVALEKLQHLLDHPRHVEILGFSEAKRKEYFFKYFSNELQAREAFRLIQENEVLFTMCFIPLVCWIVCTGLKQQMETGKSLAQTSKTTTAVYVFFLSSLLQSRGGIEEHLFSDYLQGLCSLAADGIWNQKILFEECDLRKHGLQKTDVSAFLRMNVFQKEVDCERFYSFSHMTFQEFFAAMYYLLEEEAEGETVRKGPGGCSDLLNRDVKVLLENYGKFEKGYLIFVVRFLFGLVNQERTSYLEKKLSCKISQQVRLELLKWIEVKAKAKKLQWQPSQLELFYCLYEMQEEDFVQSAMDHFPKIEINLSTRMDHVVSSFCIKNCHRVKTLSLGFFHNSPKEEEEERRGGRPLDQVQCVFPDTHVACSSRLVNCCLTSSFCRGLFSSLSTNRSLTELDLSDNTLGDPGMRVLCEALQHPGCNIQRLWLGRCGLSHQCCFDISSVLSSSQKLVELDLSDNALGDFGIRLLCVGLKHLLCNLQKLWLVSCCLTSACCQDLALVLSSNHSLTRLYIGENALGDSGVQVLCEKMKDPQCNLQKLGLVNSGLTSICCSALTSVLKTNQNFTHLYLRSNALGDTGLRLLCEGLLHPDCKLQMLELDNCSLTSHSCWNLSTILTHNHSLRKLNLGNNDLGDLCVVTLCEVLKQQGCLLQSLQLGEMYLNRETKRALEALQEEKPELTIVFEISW
Chain of NACHT, LRR and PYD domains-containing protein 3 (Q8R4B8 whole entry, the tested form may be a part): as above

The half-life is the time in which the quantity being followed falls by half. Low values mean rapid decline, high ones slow decline. For orientation: IC50 means the point on the concentration scale where inhibition reaches its midpoint. In general, AUC(0-t) refers to the area under the concentration-time curve up to a stated or last time point. Higher therefore signals high exposure. The Tmax is the time at which the peak concentration occurs. By Cmax is commonly meant the maximum level reached in the sampled fluid or tissue. The bioavailability is dose-corrected exposure relative to a reference, in per cent. A higher bioavailability goes with much systemic uptake. Consider `CC(C)c1nn(Cc2nnc(-c3ccc(C(F)(F)F)nc3Cl)o2)c(=O)c2cc3sc(Cl)cc3n12`, for which the half-life in data set [1] is 0.525 h; in data set [15], 1.31 h. In addition, the IC50 in data set [2] turned out to be 380 nM. In addition, the Activity result in data set [3] is “Non-Toxic”. Also, the outcome in data set [4] and in data set [9] was inactive. In addition, the inhibition result in [5], in data set [6], in data set [7] and in data set [23] was “Active” each time. Besides, the inhibition result in data set [8] and in data set [10] was “inactive” each time. Also, the outcome in data set [11], in [12], in data set [18], in data set [19], in data set [20] and in [21] was Active. Further, in data set [22], the result was Active. In data set [13], this compound displayed an AUC(0-t) of 1170 ng·h/mL. In addition, the Tmax in data set [14] was determined as 1 h. In addition, the Cmax in data set [16] amounted to 437 ng/mL. The bioavailability in data set [17] came to 22.5%.

Values taken from ChEMBL document CHEMBL5365532, “Discovery of Triazinone Derivatives as Novel, Specific, and Direct NLRP3 Inflammasome Inhibitors for the Treatment of DSS-Induced Ulcerative Colitis” (J Med Chem, 2023).
